Each structure is given as a SMILES string.

In one assay the target is T1, LmjIPCS (inositol phosphorylceramide synthase from L. major) (Leishmania major, UniProt E9AFX2).
T1 sequence (E9AFX2 1-338): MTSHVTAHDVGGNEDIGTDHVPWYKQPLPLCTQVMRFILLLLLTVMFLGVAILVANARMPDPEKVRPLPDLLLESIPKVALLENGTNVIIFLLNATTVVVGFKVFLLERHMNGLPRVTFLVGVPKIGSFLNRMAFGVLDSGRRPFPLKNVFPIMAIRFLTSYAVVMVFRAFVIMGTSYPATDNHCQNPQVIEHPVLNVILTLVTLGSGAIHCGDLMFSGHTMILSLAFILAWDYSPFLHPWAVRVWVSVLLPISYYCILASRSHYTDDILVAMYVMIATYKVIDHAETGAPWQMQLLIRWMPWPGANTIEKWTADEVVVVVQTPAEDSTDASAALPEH
Nature of the assay: biochemical. It counts as biochemical. Also on record: inhibition: dose or concentration left out as unconfirmed.
Conditions: not given
Consider `Cc1cc(=O)n(-c2ccccc2)n1C` [ANTIPYRINE], for which the “20mM inhibition LmjIPCS” value was determined as 36%.
For `O=c1cc(-c2ccc(O)cc2)oc2cc(O)cc(O)c12` [APIGENIN], the “20mM inhibition LmjIPCS” value is 59%.
On the same count and under the same terms, next, `O=C(CCCN1CCN(c2ccccn2)CC1)c1ccc(F)cc1` [AZAPERONE]: 35%; `Cn1cnc([N+](=O)[O-])c1Sc1ncnc2nc[nH]c12` [AZATHIOPRINE]: 39%.
Take `CCOC(=O)OC(C)OC(=O)[C@@H]1N2C(=O)[C@@H](NC(=O)[C@H](N)c3ccccc3)[C@H]2SC1(C)C` (stereo partly drawn) [BACAMPICILLIN]: the “20mM inhibition LmjIPCS” value worked out at 48%.
Still for that read-out and setting: next, `NCC(CC(=O)O)c1ccc(Cl)cc1` (stereo not drawn) [BACLOFEN]: 50%; `NS(=O)(=O)c1cc2c(cc1C(F)(F)F)NC(Cc1ccccc1)NS2(=O)=O` (stereo not drawn) [BENDROFUMETHIAZIDE]: 63%.
As to `CC(Cc1cccc(C(F)(F)F)c1)NCCOC(=O)c1ccccc1` (stereo not drawn) [BENFLUOREX], the “20mM inhibition LmjIPCS” value is given as 65%.
Same read-out and setting: next, `NC(CO)C(=O)NNCc1ccc(O)c(O)c1O` (stereo not drawn) [BENSERAZIDE]: 43%; `CC(C)COCC(CN(Cc1ccccc1)c1ccccc1)N1CCCC1` (stereo not drawn) [BEPRIDIL]: 61%; `O=C1CCO1` [BETA-PROPIOLACTONE]: 1.45%.
Same read-out and setting: next, `C[C@H]1C[C@H]2[C@@H]3CCC4=CC(=O)C=C[C@]4(C)[C@@]3(F)[C@@H](O)C[C@]2(C)[C@@]1(O)C(=O)CO` [BETAMETHASONE]: 45%; `CC(C[N+](C)(C)C)OC(N)=O` (stereo not drawn) [BETHANECHOL]: 53%.
For `c1ccc(-c2ccc(C(c3ccccc3)n3ccnc3)cc2)cc1` (stereo not drawn) [BIFONAZOLE], the “20mM inhibition LmjIPCS” value was found to be 52%.
Turning to `CC(=O)Oc1ccc(C(c2ccc(OC(C)=O)cc2)c2ccccn2)cc1` [BISACODYL], the “20mM inhibition LmjIPCS” value is reported as 48%.
With `Oc1c(Cl)cc(Cl)cc1Sc1cc(Cl)cc(Cl)c1O` [BITHIONOL], the “20mM inhibition LmjIPCS” value is reported as 41%.
Same read-out and setting: for `O=C(O)CC[N+](=O)[O-]` [BOVINOCIDIN] the value was 21%.
On to `Oc1c(Br)cc(Br)c2cccnc12` [BROXYQUINOLINE], for which the “20mM inhibition LmjIPCS” value is on record as 61%.
Consider `CCOc1nc2cccc(C(=O)OC(C)OC(=O)OC3CCCCC3)c2n1Cc1ccc(-c2ccccc2-c2nn[nH]n2)cc1` (stereo not drawn) [CANDESARTAN CILEXTIL], for which the “20mM inhibition LmjIPCS” value is 11%.

The assay is the same for the next values; noted with them: NINDS set screen, single concentration printed as 20mM.
Regarding `CN1CCc2cccc3c2[C@H]1Cc1ccc(O)c(O)c1-3` [APOMORPHINE], the “20mM inhibition LmjIPCS” value is recorded as 47%.
Still for that read-out and setting: for `O=C1C(O)=C([C@H]2CC[C@H](c3ccc(Cl)cc3)CC2)C(=O)c2ccccc21` [ATOVAQUONE] the value was 46%; for `C#CCCCCCCCCCCCC(O)CC(O)CO` (stereo not drawn) [AVOCADYNE], 65%.
`C#CCCCCCCCCCCCC(=O)CC(O)COC(C)=O` (stereo not drawn) [AVOCADYNONE ACETATE]: the “20mM inhibition LmjIPCS” value is on record as 67%.
For `O=C(O)CCCCCCCC(=O)O` [AZELAIC ACID], the “20mM inhibition LmjIPCS” value is 38%.
For `CN1CCCC(n2nc(Cc3ccc(Cl)cc3)c3ccccc3c2=O)CC1` (stereo not drawn) [AZELASTINE], the “20mM inhibition LmjIPCS” value came out at 56%.
In the case of `CCOC(=O)c1ccc(N)cc1` [BENZOCAINE], the “20mM inhibition LmjIPCS” value was 46%.
Consider `NS(=O)(=O)c1cc2c(cc1Cl)N=C(CSCc1ccccc1)NS2(=O)=O` [BENZTHIAZIDE], for which the “20mM inhibition LmjIPCS” value was 36%.
Regarding `CN(Cc1cc(Br)cc(Br)c1N)C1CCCCC1` [BROMHEXINE], the “20mM inhibition LmjIPCS” value is listed as 53%.
As for `CS(=O)(=O)OCCCCOS(C)(=O)=O` [BUSULFAN], the “20mM inhibition LmjIPCS” value is listed as 44%.

Still in this assay, the particulars now being: NINDS set screen; read-out: inhibition LmjIPCS.
As to `CC[C@H]1OC(=O)[C@H](C)[C@@H](O[C@H]2C[C@@](C)(OC)[C@@H](O)[C@H](C)O2)[C@H](C)[C@@H](O[C@@H]2O[C@H](C)C[C@H](N(C)C)[C@H]2O)[C@](C)(O)C[C@@H](C)CN(C)[C@H](C)[C@@H](O)[C@]1(C)O` [AZITHROMYCIN], the inhibition (commonly the drop in the measured response relative to a control, in per cent) was 19%.
In the case of `CCCCN(CCCC)CCCOC(=O)c1ccc(N)cc1` [BUTACAINE], the inhibition is 19%.
The same measure, in the same setting: next, `CCCCOC(=O)c1ccc(N)cc1` [BUTAMBEN]: 14%.

The assay is the same for the next values; noted with them: read-out: 20mM inhibition LmjIPCS.
In the case of `O=C1c2ccccc2C(=O)c2ccccc21` [ANTHRAQUINONE], the inhibition at 20000 µM came out at 10%.
For `CN[C@@H]1[C@@H](O[C@H]2O[C@H](CO)[C@@H](N)[C@H](O)[C@H]2O)OC2C[C@@H](N)[C@@H](O[C@H]3[C@H](O)[C@@H](O)[C@H](N)C[C@@H]3N)OC2[C@@H]1O` (stereo partly drawn) [APRAMYCIN], the inhibition at 20000 µM is 0.0509%.
On the same count and under the same terms, for `COC(=O)C1=CCCN(C)C1` [ARECOLINE] the value was -3.74%; for `CC(=O)Oc1ccccc1C(=O)O` [ASPIRIN], 23%; for `CC(C)NCC(O)COc1ccc(CC(N)=O)cc1` (stereo not drawn) [ATENOLOL], -6%.
Turning to `CC(C)c1c(C(=O)Nc2ccccc2)c(-c2ccccc2)c(-c2ccc(F)cc2)n1CC[C@@H](O)C[C@@H](O)CC(=O)O` [ATORVASTATIN], the inhibition at 20000 µM was found to be 9.48%.
In the case of `C=C1[C@@H]2CC[C@H]3[C@]4(C)C[C@H](O[C@@H]5O[C@H](CO)[C@@H](OS(=O)(=O)O)[C@H](OS(=O)(=O)O)[C@H]5OC(=O)CC(C)C)C[C@@H](C(=O)O)[C@H]4CC[C@]3(C2)[C@H]1O` [ATRACTYLOSIDE], the inhibition at 20000 µM came to 18%.
`CN1[C@@H]2CC[C@H]1C[C@@H](OC(=O)C(CO)c1ccccc1)C2` (stereo partly drawn) [ATROPINE]: the inhibition at 20000 µM came to 26%.
On to `COc1ccc(C(=O)CC(=O)c2ccc(C(C)(C)C)cc2)cc1` [AVOBENZONE], for which the inhibition at 20000 µM is 0.941%.
As to `C/C=C(\C)C(=O)O[C@H]1C[C@@H](OC(C)=O)[C@@]2(C(=O)OC)CO[C@H]3[C@@H](O)[C@@](C)([C@]45O[C@@]4(C)[C@H]4C[C@@H]5O[C@@H]5OC=C[C@@]54O)[C@H]4[C@]1(CO[C@]4(O)C(=O)OC)[C@@H]32` [AZADIRACHTIN], the inhibition at 20000 µM stood at 3.53%.
As to `[N-]=[N+]=CC(=O)OC[C@H](N)C(=O)O` [AZASERINE], the inhibition at 20000 µM is 14%.
As for `CC1(C)S[C@@H]2[C@H](NC(=O)[C@H](NC(=O)N3CCNC3=O)c3ccccc3)C(=O)N2[C@H]1C(=O)O` [AZLOCILLIN], the inhibition at 20000 µM was -4%.
Consider `c1ccc(/N=N/c2ccccc2)cc1` [AZOBENZENE], for which the inhibition at 20000 µM is 2.28%.
On the same count and under the same terms, for `CCOC(=O)[C@H](CCc1ccccc1)N[C@H]1CCc2ccccc2N(CC(=O)O)C1=O` [BENAZEPRIL] the value was -0.0339%.
`O=C1c2ccccc2-c2cccc3cccc1c23` [BENZANTHRONE]: the inhibition at 20000 µM was found to be 16%.
On to `S=C=NCc1ccccc1` [BENZYL ISOTHIOCYANATE], for which the inhibition at 20000 µM stood at 6%.
Still for that read-out and setting: for `COc1cc2c3cc1Oc1c(OC)c(OC)cc4c1[C@@H](Cc1ccc(O)c(c1)Oc1ccc(cc1)C[C@@H]3N(C)CC2)N(C)CC4` [BERBAMINE] the value was 18%; for `O=C(O)CCNC(=O)c1ccccc1` [BETAMIPRON], -3.5%.
The same measure, in the same setting: next, `C=C(C)[C@@H]1CC[C@]2(C(=O)O)CC[C@]3(C)[C@H](CC[C@@H]4[C@@]5(C)CC[C@H](O)C(C)(C)[C@@H]5CC[C@]43C)[C@@H]12` [BETULINIC ACID]: 21%.
With `CN(C)CCC(c1ccc(Br)cc1)c1ccccn1` (stereo not drawn) [BROMPHENIRAMINE], the inhibition at 20000 µM turned out to be 14%.
Turning to `CCCC(=O)Nc1ncnc2c1ncn2[C@@H]1O[C@@H]2COP(=O)(O)O[C@H]2[C@H]1OC(=O)CCC` [BUCLADESINE], the inhibition at 20000 µM was -1.88%.
Consider `O=C(O)CN(CC(=O)O)Cc1cc2c(cc1O)Oc1cc(O)c(CN(CC(=O)O)CC(=O)O)cc1C21OC(=O)c2ccccc21` [CALCEIN], for which the inhibition at 20000 µM came to 0%.
As for `CC[C@@]1(O)C(=O)OCc2c1cc1n(c2=O)Cc2cc3ccccc3nc2-1` [CAMPTOTHECIN], the inhibition at 20000 µM is 1.2%.
As to `C[C@]12CCC(=O)C=C1C=C[C@@H]1[C@@H]2CC[C@@]2(C)[C@H]1CC[C@@]21CCC(=O)O1` [CANRENONE], the inhibition at 20000 µM was 12%.

Still in this assay, the particulars now being: read-out: inhibition LmjIPCS.
As to `C[C@@H]1CC[C@H]2[C@@H](C)C(=O)O[C@@H]3O[C@@]4(C)CC[C@@H]1[C@]32OO4` [ARTEMISININ], the inhibition turned out to be 1.06%.
The same measure, in the same setting: next, `Nc1ncn([C@@H]2O[C@H](CO)[C@@H](O)[C@H]2O)c(=O)n1` [AZACITIDINE]: 12%; `O=c1cc(-c2ccccc2)oc2cc(O)c(O)c(O)c12` [BAICALEIN]: 32%.
In the case of `CC1(C)S[C@@H]2[C@H](NC(=O)Cc3ccccc3)C(=O)N2[C@H]1C(=O)O` [BENZYL PENICILLIN], the inhibition is 21%.
Turning to `COc1ccc2cc3[n+](cc2c1OC)CCc1cc2c(cc1-3)OCO2` [BERBERINE], the inhibition was 6%.
`COc1c2ccoc2cc2oc(=O)ccc12` [BERGAPTEN]: the inhibition came to 17%.
With `CC(C)(Oc1ccc(CCNC(=O)c2ccc(Cl)cc2)cc1)C(=O)O` [BEZAFIBRATE], the inhibition turned out to be 11%.
With `CC[N+](C)(C)Cc1ccccc1Br` [BRETYLIUM], the inhibition was 14%.
For `CCN(CC)CCNC(=O)c1cc(Br)c(N)cc1OC` [BROMOPRIDE], the inhibition was 17%.
For the compound `CCCCNc1cc(C(=O)O)cc(S(N)(=O)=O)c1Oc1ccccc1` [BUMETANIDE], the inhibition was found to be 9%.
As for `CC(NC(C)(C)C)C(=O)c1cccc(Cl)c1` (stereo not drawn) [BUPROPION], the inhibition was 29%.
With `C[C@]12CCC(=O)C=C1C=C[C@@H]1[C@@H]2CC[C@@]2(C)[C@H]1CC[C@@]2(O)CCC(=O)O` [CANRENOIC ACID], the inhibition was found to be 7%.

Still in this assay, the particulars now being: screening of NINDS set, sheet Screen 1; read-out: inhibition LmjIPCS.
With `CCCCN1CCCCC1C(=O)Nc1c(C)cccc1C` (stereo not drawn) [BUPIVACAINE], the inhibition amounted to 5.35%.

The values are drawn from paper PMC7802075 (ACS Infectious Diseases, 2020).
